The text below walks through data of patent publication US20080085889A1, “Amidomethyl-Substituted 1-(Carboxyalkyl) Cyclopentyl-Carbonylamino-Benzazepine-N-Acetic Acid Compounds, Process and Intermediate Products for Their Preparation and Pharmaceutical Compositions Containing Them” (SOLVAY PHARMACEUTICALS GmbH, priority 2003, published 2008).

Data set [1] relates to formation of ET-1 from Big-ET-1. Put plainly: In vivo inhibition of the Big-ET-1-induced blood pressure increase in anaesthetised rats, i.v. single dose. Also on record: species or system Rats (Sprague-Dawley). The note with it: 5 min before 0.5 nmol/kg Big-ET-1, negative values indicate inhibition. The procedure, abridged:
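Anaesthetised (Rompun/Ketavet) Sprague-Dawley rats got test substance i.v. via jugular vein, as a rule 10 μmol/kg, or vehicle; 5 min later 0.5 nmol/kg Big-ET-1 infused over 1 min. Carotid pressure recorded every 5 min for 30 min; value is % inhibition versus vehicle of maximum Big-ET-1-induced systolic pressure rise, negative values meaning inhibition.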

Data set [2] concerns the target T1, soluble, human recombinant NEP (Homo sapiens, UniProt P08473).
T1 construct: soluble, human recombinant NEP; purchased Prof; Crine, University of Montreal, Canada
In words: In-vitro investigation of the NEP inhibitory action (fluorescence-quenched Big-ET-1 analogue, HPLC). Type of data set: biochemical. The procedure, abridged: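 Enzyme preincubated with test substance 15 min at 37° C, then incubated with fluorescence-quenched Mca peptide substrate 60 min at 37° C and stopped by heating to 95° C. Cleaved and intact peptide separated by reversed-phase HPLC; unquenched Mca peak area (ex 328/em 393 nm) gave % inhibition versus no-compound control, duplicates, IC50 derived.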

A short description of data set [3]: Plasma protein binding, equilibrium dialysis, human plasma. The class given is in vitro ADME. The note with it: human plasma (10% for routine testing), 37° C., pH 7.4, 10% plasma (100% for low binders), read-out: % bound (human plasma) (converted). As to the method: (§1) Plasma protein binding of the test substances of Formula I was measured using a validated equilibrium dialysis method. The dialysis cells consisted of two halves separated by a semi-permeable membrane slightly tensioned in between. […] Before being used, the membranes were re-hydrated by soaking in water followed by the dialysis buffer. Plasma (10% for routine testing, and 100% for compounds found to have a low protein binding) was heated to 37° C. and adjusted to pH 7.4 before use. 5 μM test compound solutions (final dimethylsulfoxide concentration 0.5%) were prepared in isotonic phosphate buffer containing rat or human plasma. The plasma-containing solution was on one side of the membrane, and the plasma-free on the other. Incubations were performed overnight (10% plasma assay), or for 2 hours (100% plasma assay) in triplicate. The cells were mounted in a drive unit that rotated the cells and ensured a uniform equilibrium was obtained. The equilibrium was temperature controlled by the drive unit being immersed in a water bath at 37° C. At the end of the equilibration time, the cells were emptied. The solutions for each batch of compounds were combined into two groups (plasma-free and plasma-containing) then cassette analysed by LC-MS/MS using two sets of calibration standards for plasma-free (7 points) and plasma-containing solutions (6 points). The percentage of protein bound compound was calculated as follows: [formula] PC=sample concentration in protein containing side; PF=sample concentration in protein free side;
A general note: In equilibrium dialysis free small molecules cross a membrane that holds back macromolecules.

Data set [4] is described as follows: Plasma protein binding, equilibrium dialysis, rat plasma. The class given is in vitro ADME. The note with it: rat plasma (10% for routine testing), 37° C., pH 7.4, 10% plasma (100% for low binders), read-out: % bound (rat plasma) (converted). On the procedure:
as §1

Where [5] appears, read: Rattus norvegicus, iv, 10 μmol/kg, read-out: % substance-related inhibition of the maximum Big-ET effect on SAP vs. control.

For orientation: IC50 means the concentration that gives 50% inhibition.

T1 sequence (P08473 52-750 limits assumed): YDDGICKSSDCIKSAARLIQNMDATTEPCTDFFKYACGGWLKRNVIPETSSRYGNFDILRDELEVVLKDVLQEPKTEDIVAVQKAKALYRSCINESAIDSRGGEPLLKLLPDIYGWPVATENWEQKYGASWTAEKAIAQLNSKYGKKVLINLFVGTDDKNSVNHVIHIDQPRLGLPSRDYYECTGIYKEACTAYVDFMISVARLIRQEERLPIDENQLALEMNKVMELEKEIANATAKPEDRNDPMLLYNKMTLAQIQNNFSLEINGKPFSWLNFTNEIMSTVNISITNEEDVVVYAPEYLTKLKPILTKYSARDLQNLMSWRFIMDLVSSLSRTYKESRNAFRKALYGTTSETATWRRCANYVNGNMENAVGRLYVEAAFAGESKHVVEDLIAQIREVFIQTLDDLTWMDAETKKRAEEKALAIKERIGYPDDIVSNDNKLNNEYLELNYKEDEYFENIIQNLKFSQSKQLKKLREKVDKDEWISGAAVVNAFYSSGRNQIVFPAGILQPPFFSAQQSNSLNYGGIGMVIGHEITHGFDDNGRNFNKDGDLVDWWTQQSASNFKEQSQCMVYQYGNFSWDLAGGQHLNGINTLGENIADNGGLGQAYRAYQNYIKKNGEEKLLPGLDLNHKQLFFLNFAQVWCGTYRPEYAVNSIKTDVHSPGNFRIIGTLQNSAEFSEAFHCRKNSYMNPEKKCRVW

With “{(3S)-3-[({1-[(2″rel1″)-2-ethoxycarbonyl)-4-(isopropylamino)-4-oxobutyl]cyclopentyl}-carbonyl)amino]-2-oxo-2,3,4,5-tetrahydro-1H-1-benzazepin-1-yl}acetic acid [Example 4]”, the “% substance-related inhibition of the maximum Big-ET effect on SAP vs. control” value in data set [1] (10 μmol/kg) was −95%.

`CC(C)NC(=O)CC(CC1(C(=O)N[C@H]2CCc3ccccc3N(CC(=O)O)C2=O)CCCC1)C(=O)O` (stereo in doubt) [Example 3, (2″rel1″)-2-{[(3S)-1-({[1-(carboxymethyl)-2-oxo-2,3,4,5-tetrahydro-1H-1-benzazepin-3-yl]amino}-carbonyl)cyclopentyl]methyl}-4-(isopropylamino)-4-oxobutyric acid]: the change in vivo at 10 µmol/kg in data set [1] (setting [5]) was -94%. Moreover, in data set [2], the half-inhibitory concentration (IC50) is 17.9 nM. Also, the fraction unbound at 5 μM in data set [3] is 0.58; in data set [4], 0.31.

For `CCN(CCCCN)C(=O)CC(CC1(C(=O)NC2CCc3ccccc3N(CC(=O)O)C2=O)CCCC1)C(=O)O` [Example 81, (2″rel1″)-4-[(4-aminobutyl)(ethyl)amino]-2-{[1-({[(3S)-1-(carboxymethyl)-2-oxo-2,3,4,5-tetrahydro-1H-1-benzazepin-3-yl]amino}carbonyl)cyclopentyl]methyl}-4-oxobutanoic acid], the change in vivo at 0.3 µmol/kg in data set [1] (Rattus norvegicus, iv, 0.3 μmol/kg, read-out: % substance-related inhibition of the maximum Big-ET effect on SAP vs. control) was -73%. Besides, the IC50 in data set [2] was determined as 4 nM. Moreover, the fraction unbound at 5 μM in data set [3] is 0.34; in data set [4] it was 0.36.

With `CN(C)CCCN(C)C(=O)CC(CC1(C(=O)NC2CCc3ccccc3N(CC(=O)O)C2=O)CCCC1)C(=O)O` (stereo not shown) [Example 64, 2-[(1-{[1-(carboxymethyl)-2-oxo-2,3,4,5-tetrahydro-1H-1-benzazepin-3-yl]carbamoyl}cyclopentyl)methyl]-4-{[3-(dimethylamino)propyl](methyl)amino}-4-oxobutanoic acid], the change in vivo at 10 µmol/kg in data set [1] (setting [5]) was -108%. For the same compound, in data set [2], the IC50 was 9 nM. The fraction unbound at 5 μM in data set [3] was approximately 1; in data set [4] it was 0.83.
